Measurements reported in patent US10689362B2, “Quinoxaline compounds as type III receptor tyrosine kinase inhibitors” (Development Center for Biotechnology, priority 2016, dated 2020).

Key:
PDGFRβ kinase = PDGFRβ kinase (Homo sapiens (Human), UniProt P09619); assay: PDGFRβ kinase assay (radiometric); assay type: biochemical; conditions: bound
Method in brief: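 Radiometric assay: recombinant PDGFRβ with poly(Glu4:Tyr1) in MOPS pH 7.0 buffer containing Mg2+/Mn2+, 10 μM ATP plus [33P]-ATP, and compound at 4% DMSO final. Incubated 60 min at 30° C, stopped with phosphoric acid, filter-captured and scintillation-counted. IC50 from curve fitting.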

FLT3 kinase = FLT3 kinase (Homo sapiens (Human), UniProt P36888); assay: FLT3 kinase assay (radiometric); assay type: biochemical; conditions: bound
Method in brief: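 Recombinant FLT3 (5 ng) phosphorylating poly(Glu4:Tyr1) (2 μg) with 10 μM ATP plus [^33P]-ATP in MOPS pH 7.0 buffer, 4% DMSO final, 60 min at 30° C. Reaction stopped with phosphoric acid, filter-captured and scintillation-counted; IC50 derived from dose-response.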

[1] = test system: Kasumi-1 human acute myeloid leukemia cell with c-KIT N822K activating mutation; assay: Kasumi-1 cell proliferation assay (CellTiter-96); assay type: cell-based; conditions: Cytotoxicity, Kasumi-1 cells, 72 hours
Method in brief: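 Kasumi-1 cells, seeded at 64000 cells/well and incubated overnight at 37 °C, were exposed to increasing compound concentrations for 72 h. Viability was measured by CellTiter96 AQueous One reagent (4 h) and absorbance at 490 nm.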

CSF-1R kinase = CSF-1R kinase (Homo sapiens (Human), UniProt P07333); assay: CSF-1R kinase assay (AlphaScreen); assay type: biochemical; conditions: class symbol
Description: Inhibition of CSF-1R kinase activity by a test compound disclosed herein was estimated by AlphaScreen (PerkinElmer). […] Reactions were incubated at 30° C. for 45 min and stopped by adding 5 μL of 50 mM EDTA. Analysis of resulting product using an AlphaScreen kit, and counted with Enspire Alpha (PerkinElmer). […] The IC50 values of quinoxaline compounds of this invention against CSF-1R kinase were determined using the GraphPad Prism 5 software.

[2] = test system: MV4-11 human acute myeloid leukemia cell with FLT3-ITD mutation; assay: MV4-11 cell proliferation assay (CellTiter-96); assay type: cell-based; conditions: Cytotoxicity, MV4-11 cells, 72 hours
Method in brief: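 MV4-11 cells (FLT3-ITD, FLT3-dependent growth) seeded at 6500 cells/well, incubated overnight at 37° C., 5% CO2, then exposed to increasing compound concentrations for 72 hours. Viability read by CellTiter96 AQueous One reagent (4 hours), absorbance at 490 nm.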

[3] = test system: CSF-1-dependent M-NFS-60 mouse myeloid leukemia cell; assay: M-NFS-60 cell proliferation assay (CellTiter-96); assay type: cell-based; conditions: Cytotoxicity, M-NFS-60 cells, 72 hours
Method in brief: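 CSF-1-dependent M-NFS-60 cells seeded at 2000 cells/well, settled overnight at 37 °C, 5% CO2, then exposed to increasing compound concentrations for 72 h. Viability read by CellTiter 96 AQueous One reagent (4 h) at 490 nm absorbance.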

[4] = test system: osteoclast precursors (osteoclast differentiation); assay: Osteoclast tartrate-resistant acid phosphatase assay; assay type: cell-based; conditions: 168 h, at 1 μM treatment, 7 days, RANKL and M-CSF, read-out: inhibition activity against osteoclast differentiation
Method in brief: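 Differentiation inhibition was scored at 1 μM compound in duplicate, using supernatant TRAP activity read at 550 nm with an acid phosphatase kit.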

c-KIT kinase = c-KIT kinase (Homo sapiens (Human), UniProt P10721); assay: c-KIT kinase assay (radiometric); assay type: biochemical
Method in brief: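 Recombinant c-Kit (20 ng) with 2 μg Poly-(Glu4:Tyr1) in MOPS pH 7.0 buffer with MgCl2/MnCl2, 10 μM ATP plus [^33P]-ATP, 4% DMSO final, 60 min at 30° C. Stopped with phosphoric acid, filter-captured and scintillation counted; IC50 from curve fit.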

[5] = test system: THP-1 human acute monocytic leukemia cell harboring NRAS G12D mutation; assay: THP-1 cell proliferation assay (counter screen, CellTiter-96); assay type: cell-based; conditions: Cytotoxicity, THP-1 cells (counter screen), 72 hours
Method in brief: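 THP-1 cells, RTK-independent owing to NRAS G12D, seeded at 5000/well, incubated overnight at 37 °C/5% CO2, then exposed to increasing compound concentrations for 72 h. CellTiter96 AQueous One reagent added for 4 h; viability from absorbance at 490 nm.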

Chain of CSF-1R kinase (P07333 20-972): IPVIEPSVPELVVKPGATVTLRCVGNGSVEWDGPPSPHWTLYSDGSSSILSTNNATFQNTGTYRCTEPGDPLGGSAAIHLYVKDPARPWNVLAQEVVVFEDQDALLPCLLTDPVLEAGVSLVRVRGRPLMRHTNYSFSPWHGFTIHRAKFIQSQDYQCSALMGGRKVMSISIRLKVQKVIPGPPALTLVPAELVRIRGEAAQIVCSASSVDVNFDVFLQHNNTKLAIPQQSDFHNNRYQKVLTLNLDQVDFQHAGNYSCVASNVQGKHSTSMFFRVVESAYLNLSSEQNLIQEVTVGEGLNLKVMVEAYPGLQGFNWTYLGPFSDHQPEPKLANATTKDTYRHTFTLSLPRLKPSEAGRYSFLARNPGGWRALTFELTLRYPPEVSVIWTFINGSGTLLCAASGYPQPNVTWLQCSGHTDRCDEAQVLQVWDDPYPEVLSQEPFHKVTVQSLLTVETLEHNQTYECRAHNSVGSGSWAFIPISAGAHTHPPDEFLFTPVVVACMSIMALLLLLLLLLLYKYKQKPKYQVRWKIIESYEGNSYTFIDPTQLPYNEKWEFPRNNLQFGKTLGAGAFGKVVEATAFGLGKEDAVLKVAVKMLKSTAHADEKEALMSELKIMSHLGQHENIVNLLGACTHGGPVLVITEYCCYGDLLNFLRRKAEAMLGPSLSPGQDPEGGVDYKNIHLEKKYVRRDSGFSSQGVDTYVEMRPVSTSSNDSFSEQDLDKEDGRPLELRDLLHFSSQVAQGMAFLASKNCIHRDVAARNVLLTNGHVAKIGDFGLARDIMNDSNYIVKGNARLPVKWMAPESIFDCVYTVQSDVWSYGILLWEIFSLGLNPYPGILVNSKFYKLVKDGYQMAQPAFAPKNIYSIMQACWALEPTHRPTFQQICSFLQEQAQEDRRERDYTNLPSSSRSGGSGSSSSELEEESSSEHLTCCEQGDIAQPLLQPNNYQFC
Chain of c-KIT kinase (P10721 26-976): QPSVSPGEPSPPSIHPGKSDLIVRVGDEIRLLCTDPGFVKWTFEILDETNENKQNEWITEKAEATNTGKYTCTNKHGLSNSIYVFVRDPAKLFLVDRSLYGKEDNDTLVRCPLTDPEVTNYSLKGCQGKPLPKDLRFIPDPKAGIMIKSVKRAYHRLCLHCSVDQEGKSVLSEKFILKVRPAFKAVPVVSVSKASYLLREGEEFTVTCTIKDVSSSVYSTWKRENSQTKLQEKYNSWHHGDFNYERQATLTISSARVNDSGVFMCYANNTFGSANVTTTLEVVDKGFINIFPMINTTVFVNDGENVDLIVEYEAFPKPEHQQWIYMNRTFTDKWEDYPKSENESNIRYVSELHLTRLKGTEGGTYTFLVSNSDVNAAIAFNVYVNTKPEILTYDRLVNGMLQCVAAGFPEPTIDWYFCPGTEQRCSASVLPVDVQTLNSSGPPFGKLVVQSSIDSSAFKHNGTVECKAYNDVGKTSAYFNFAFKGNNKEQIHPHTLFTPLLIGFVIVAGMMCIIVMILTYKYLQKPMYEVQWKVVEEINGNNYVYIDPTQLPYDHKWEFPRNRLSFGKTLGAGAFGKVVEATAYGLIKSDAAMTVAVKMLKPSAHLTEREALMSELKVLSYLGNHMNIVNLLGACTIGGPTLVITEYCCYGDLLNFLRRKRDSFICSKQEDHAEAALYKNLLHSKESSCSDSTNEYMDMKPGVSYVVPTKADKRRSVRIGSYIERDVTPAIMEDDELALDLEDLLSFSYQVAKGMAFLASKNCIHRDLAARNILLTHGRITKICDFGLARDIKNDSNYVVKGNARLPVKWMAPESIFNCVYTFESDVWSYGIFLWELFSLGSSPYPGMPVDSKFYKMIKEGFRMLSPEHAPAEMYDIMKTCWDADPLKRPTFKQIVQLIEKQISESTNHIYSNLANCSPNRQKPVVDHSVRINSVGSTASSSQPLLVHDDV
Chain of FLT3 kinase (P36888 27-993): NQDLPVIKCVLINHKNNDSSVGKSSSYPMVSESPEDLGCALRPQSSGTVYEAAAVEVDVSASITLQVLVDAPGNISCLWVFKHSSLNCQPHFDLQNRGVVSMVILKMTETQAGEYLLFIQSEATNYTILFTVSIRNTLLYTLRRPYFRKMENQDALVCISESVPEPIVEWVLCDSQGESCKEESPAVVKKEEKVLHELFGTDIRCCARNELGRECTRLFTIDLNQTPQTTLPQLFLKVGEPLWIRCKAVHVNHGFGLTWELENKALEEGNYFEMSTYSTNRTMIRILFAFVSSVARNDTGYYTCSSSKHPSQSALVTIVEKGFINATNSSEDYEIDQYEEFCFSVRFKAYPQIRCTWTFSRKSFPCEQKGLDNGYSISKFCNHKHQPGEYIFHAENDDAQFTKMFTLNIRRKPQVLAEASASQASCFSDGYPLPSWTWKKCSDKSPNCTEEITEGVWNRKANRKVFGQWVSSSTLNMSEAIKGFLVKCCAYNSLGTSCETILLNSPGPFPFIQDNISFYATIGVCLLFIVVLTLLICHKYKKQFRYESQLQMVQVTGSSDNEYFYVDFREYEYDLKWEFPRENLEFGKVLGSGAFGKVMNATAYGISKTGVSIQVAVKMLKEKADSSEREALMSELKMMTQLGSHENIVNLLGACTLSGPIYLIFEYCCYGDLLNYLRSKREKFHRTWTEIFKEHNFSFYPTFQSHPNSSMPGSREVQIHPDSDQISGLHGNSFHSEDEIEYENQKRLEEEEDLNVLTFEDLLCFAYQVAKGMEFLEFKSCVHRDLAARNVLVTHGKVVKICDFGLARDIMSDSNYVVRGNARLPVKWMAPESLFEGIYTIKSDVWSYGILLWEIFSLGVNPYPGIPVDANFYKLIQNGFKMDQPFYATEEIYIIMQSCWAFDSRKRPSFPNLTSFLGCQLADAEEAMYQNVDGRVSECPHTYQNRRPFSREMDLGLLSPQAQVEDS
Chain of PDGFRβ kinase (P09619 33-1106): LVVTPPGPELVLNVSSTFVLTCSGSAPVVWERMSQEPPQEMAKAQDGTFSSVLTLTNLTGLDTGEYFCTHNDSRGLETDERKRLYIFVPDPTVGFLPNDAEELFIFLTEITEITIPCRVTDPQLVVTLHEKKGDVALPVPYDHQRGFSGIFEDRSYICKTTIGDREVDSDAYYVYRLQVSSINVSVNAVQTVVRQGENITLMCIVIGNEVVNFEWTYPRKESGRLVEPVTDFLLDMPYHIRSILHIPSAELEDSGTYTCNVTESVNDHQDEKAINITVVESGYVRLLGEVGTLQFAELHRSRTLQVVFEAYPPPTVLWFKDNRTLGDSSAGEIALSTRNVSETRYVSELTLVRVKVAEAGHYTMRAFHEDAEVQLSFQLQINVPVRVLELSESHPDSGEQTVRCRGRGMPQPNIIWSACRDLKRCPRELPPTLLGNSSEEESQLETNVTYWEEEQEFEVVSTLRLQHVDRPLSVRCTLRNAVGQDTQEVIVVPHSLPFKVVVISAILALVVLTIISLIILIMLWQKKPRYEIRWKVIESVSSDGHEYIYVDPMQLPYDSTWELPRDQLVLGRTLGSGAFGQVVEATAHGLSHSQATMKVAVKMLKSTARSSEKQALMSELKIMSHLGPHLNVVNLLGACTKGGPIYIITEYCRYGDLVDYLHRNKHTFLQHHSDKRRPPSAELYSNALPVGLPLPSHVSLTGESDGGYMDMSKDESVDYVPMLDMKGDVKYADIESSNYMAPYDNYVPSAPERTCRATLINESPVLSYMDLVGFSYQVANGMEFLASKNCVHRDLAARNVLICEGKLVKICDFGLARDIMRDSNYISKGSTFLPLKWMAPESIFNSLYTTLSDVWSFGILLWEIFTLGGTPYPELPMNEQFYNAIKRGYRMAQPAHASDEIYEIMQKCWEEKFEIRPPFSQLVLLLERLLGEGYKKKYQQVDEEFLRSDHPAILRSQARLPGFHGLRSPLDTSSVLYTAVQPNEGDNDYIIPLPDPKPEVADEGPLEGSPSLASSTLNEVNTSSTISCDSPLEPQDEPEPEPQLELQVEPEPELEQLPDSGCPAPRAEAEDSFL

IC50 (PDGFRβ kinase)	IC50 (FLT3 kinase)	IC50 (CSF-1R kinase)	IC50 (c-KIT kinase; class symbol)	IC50 (c-KIT kinase; bound)	SMILES	IC50 [1]	IC50 [2]	IC50 [3]	inhibition at 1 µM [4]	IC50 [5]
> 1 µM	> 1 µM	< 0.1 µM	< 0.1 µM		COc1cc(Nc2ccc3ncc(N4CCC(N(C)C)CC4)nc3c2C#N)ccc1OCc1cccc(C#N)c1 [Example 84, 6-((4-((3-cyanobenzyl)oxy)-3-methoxyphenyl)amino)-3-(4-(dimethylamino)piperidin-1-yl)quinoxaline-5-carbonitrile]	0.3 to 1 µM	1 to 10 µM	< 0.3 µM	> 50%	1 to 10 µM
> 1 µM	> 1 µM	< 0.1 µM	< 0.1 µM		COc1ccc(COc2ccc(Nc3ccc4ncc(N5CCC(N(C)C)CC5)nc4c3C#N)cc2OC)cc1F [Example 85, 3-(4-(dimethylamino)piperidin-1-yl)-6-((4-((3-fluoro-4-methoxy-benzyl)oxy)-3-methoxyphenyl)amino)quinoxaline-5-carbonitrile]	< 0.3 µM	1 to 10 µM	< 0.3 µM	> 50%	1 to 10 µM
> 1 µM	> 1 µM	< 0.1 µM	0.1 to 0.3 µM		COc1ccc(COc2ccc(Nc3ccc4ncc(N5CCC5)nc4c3C#N)cc2OC)cn1 [Example 86, 3-(azetidin-1-yl)-6-((3-methoxy-4-((6-methoxpyridin-3-yl)methoxy)phenyl)amino)quinoxaline-5-carbonitrile]	1 to 10 µM	> 10 µM	< 0.3 µM	> 50%	> 10 µM
> 1 µM	> 1 µM	< 0.1 µM	0.1 to 0.3 µM		COc1cc(Nc2ccc3ncc(N4CCC4)nc3c2C#N)ccc1OCc1cccc(C#N)c1 [Example 87, 3-(azetidin-1-yl)-6-((4-((3-cyanobenzyl)oxy)-3-methoxyphenyl)amino)quinoxaline-5-carbonitrile]	1 to 10 µM	> 10 µM	0.3 to 1 µM	> 50%	> 10 µM
> 1 µM	> 1 µM	< 0.1 µM	< 0.1 µM		COc1cc(Nc2ccc3ncc(N4CCOCC4)nc3c2C#N)ccc1OCc1ccccc1 [Example 88, 6-((4-(benzyloxy)-3-methoxyphenyl)amino)-3-morpholinoquinoxaline-5-carbonitrile]	0.3 to 1 µM	1 to 10 µM	< 0.3 µM	> 50%	> 10 µM
> 1 µM	> 1 µM	< 0.1 µM	< 0.1 µM		COc1cc(Nc2ccc3ncc(N4CCC(N(C)C)CC4)nc3c2C#N)ccc1OCc1cccc(F)c1 [Example 89, 3-(4-(dimethylamino)piperidin-1-yl)-6-((4-((3-fluorobenzyl)oxy)-3-methoxyphenyl)amino)quinoxaline-5-carbonitrile]	1 to 10 µM	1 to 10 µM	< 0.3 µM	> 50%	1 to 10 µM
> 1 µM	> 1 µM	< 0.1 µM	< 0.1 µM		COc1ccc(COc2ccc(Nc3ccc4ncc(N5CCNCC5)nc4c3C#N)cc2OC)cc1 [Example 90, 6-((3-methoxy-4-((4-methoxybenzyl)oxy)phenyl)amino)-3-(piperazin-1-yl)quinoxaline-5-carbonitrile]	0.3 to 1 µM	> 10 µM	< 0.3 µM	> 50%	> 10 µM
> 1 µM	> 1 µM	< 0.1 µM	0.1 to 0.3 µM		COc1cc(Nc2ccc3ncc(N4CCOCC4)nc3c2C#N)ccc1OCc1cccc(F)c1 [Example 91, 6-((4-((3-fluorobenzyl)oxy)-3-methoxyphenyl)amino)-3-morpholinoquinoxaline-5-carbonitrile]	1 to 10 µM	1 to 10 µM	0.3 to 1 µM	> 50%	> 10 µM
> 1 µM	> 1 µM	< 0.1 µM	< 0.1 µM		COc1ccc(COc2ccc(Nc3ccc4ncc(N5CCOCC5)nc4c3C#N)cc2OC)cc1F [Example 93, 6-((4-((3-fluoro-4-methoxybenzyl)oxy)-3-methoxy-phenyl)amino)-3-morpholinoquinoxaline-5-carbonitrile]	< 0.3 µM	> 10 µM	< 0.3 µM	> 50%	> 10 µM
> 1 µM	> 1 µM	< 0.1 µM	< 0.1 µM		COc1ccc(COc2ccc(Nc3ccc4ncc(N5CCOCC5)nc4c3C#N)cc2OC)c(F)c1 [Example 94, 6-((4-((2-fluoro-4-methoxybenzyl)oxy)-3-methoxyphenyl)amino)-3-morpholinoquinoxaline-5-carbonitrile]	0.3 to 1 µM	> 10 µM	< 0.3 µM	> 50%	> 10 µM
> 1 µM	> 1 µM	< 0.1 µM	0.1 to 0.3 µM		COc1ccc(COc2ccc(Nc3ccc4ncc(N5CCN(C)CC5)nc4c3C#N)cc2OC)cn1 [Example 95, 6-((3-methoxy-4-((6-methoxypyridin-3-yl)methoxy)phenyl)amino)-3-(4-methylpiperazin-1-yl)quinoxaline-5-carbonitrile]	0.3 to 1 µM	1 to 10 µM	< 0.3 µM	> 50%	1 to 10 µM
> 1 µM	> 1 µM	< 0.1 µM	0.1 to 0.3 µM		COc1ccc(COc2ccc(Nc3ccc4ncc(N5CCOCC5)nc4c3C#N)cc2OC)cc1C#N [Example 96, 6-((4-((3-cyano-4-methoxybenzyl)oxy)-3-methoxy-phenyl)amino)-3-morpholinoquinoxaline-5-carbonitrile]	> 10 µM	1 to 10 µM	< 0.3 µM	> 50%	> 10 µM
> 1 µM	> 1 µM	< 0.1 µM	0.1 to 0.3 µM		COCCN1CCN(c2cnc3ccc(Nc4ccc(OCc5ccc(OC)nc5)c(OC)c4)c(C#N)c3n2)CC1 [Example 97, 6-((3-methoxy-4-((6-methoxypyridin-3-yl)methoxy)phenyl)amino)-3-(4-(2-methoxyethyl)piperazin-1-yl)quinoxaline-5-carbonitrile]	0.3 to 1 µM	1 to 10 µM	< 0.3 µM	> 50%	> 10 µM
> 1 µM	> 1 µM	< 0.1 µM	< 0.1 µM		CCCc1ccc(COc2ccc(Nc3ccc4ncc(N5CCOCC5)nc4c3C#N)cc2OC)cn1 [Example 98, 6-((3-methoxy-4-((6-propylpyridin-3-yl)methoxy)phenyl)amino)-3-morpholinoquinoxaline-5-carbonitrile]	< 0.3 µM	1 to 10 µM	< 0.3 µM	> 50%	> 10 µM
> 1 µM	> 1 µM	< 0.1 µM		> 1 µM	COc1cc(Nc2ccc3ncc(N4CCOCC4)nc3c2C#N)ccc1OCc1ccc(F)c(F)c1 [Example 99, 6-((4-((3,4-difluorobenzyl)oxy)-3-methoxyphenyl)amino)-3-morpholinoquinoxaline-5-carbonitrile]	> 10 µM	> 10 µM	< 0.3 µM	> 50%	> 10 µM
